Experimental findings from US10980889B1 (Revolution Medicines, Inc., priority 2018, dated 2021) are described below.

Experiment [1] concerns P-Akt (S473). As to the kind of experiment: Cell based AlphaLISA assay, inhibition of P-Akt (S473) in MDA-MB-468 cells (mTORC2 substrate). The following applies: AlphaLisa, two to four hours at 37° C.; for IC50: Homo sapiens, 4 h, read-out: pIC50 for Inhibition of mTORC1 and mTORC2 Substrate Phosphorylation p-AKT1/2/3-(S473) (converted). Here is the method: (§1) Cell Based AlphaLISA Assays For Determining IC50 For Inhibition of P-Akt (S473), P-4E-BP1(T37/46), and P-P70S6K (T389) in MDA-MB-468 Cells
(§2) mTOR Kinase Cellular Assay
(§3) To measure functional activity of mTORC1 and mTORC2 in cells the phosphorylation of 4EBPT (Thr37/46) and P70S6K (Thr389), and AKT1/2/3 (Ser473) was monitored using AlphaLisa SureFire Ultra Kits (Perkin Elmer). […] Incubations were terminated by removal of the assay buffer and addition of lysis buffer provided with the assay kit. Samples were processed according to the manufacturer's instructions. The Alpha signal from the respective phosphoproteinswas measured in duplicate using a microplate reader (Envision, Perkin-Elmer or Spectramax M5, Molecular Devices). Inhibitor concentration response curves were analyzed using normalized IC50 regression curve filling with control based normalization.
For orientation: In Alpha technology, singlet oxygen from a donor bead excites a nearby acceptor bead.

For experiment [2], the system named is P-4E-BP1 (T37/46). The experiment can be described thus: Cell based AlphaLISA assay, inhibition of P-4E-BP1 (T37/46) in MDA-MB-468 cells (mTORC1 substrate). The following applies: AlphaLisa, two to four hours at 37° C.; for IC50: Homo sapiens, 4 h, read-out: pIC50 for Inhibition of mTORC1 and mTORC2 Substrate Phosphorylation P-4E-BP1-(T37/46) (converted). Here is the method: as §1, §2, §3

Experiment [3] concerns P-P70S6K (T389). As to the kind of experiment: Cell based AlphaLISA assay, inhibition of P-P70S6K (T389) in MDA-MB-468 cells (mTORC1 substrate). To be noted: AlphaLisa, two to four hours at 37° C.; for IC50: Homo sapiens, 4 h, read-out: pIC50 for Inhibition of mTORC1 and mTORC2 Substrate Phosphorylation p-P70S6K-(T389) (converted). Here is the method:
as §1, §2, §3

Each structure is given as a SMILES string. Where only a bound is given, the exact number is not on record here.

Take `CO[C@H]1C[C@@H]2CC[C@@H](C)[C@@](O)(O2)C(=O)C(=O)N2CCCC[C@H]2C(=O)O[C@H]([C@H](C)C[C@@H]2CC[C@@H](OC(=O)N3CCc4nc(N5CCN(C(=O)CCOCCN6CCN(c7ncc(C(=O)N8CCc9cc(Cn%10nc(-c%11ccc%12[nH]ccc%12c%11)c%11c(N)ncnc%11%10)ccc9C8)cn7)CC6)CC5)ncc4C3)[C@H](OC)C2)CC(=O)[C@H](C)/C=C(\C)[C@@H](O)[C@@H](OC)C(=O)[C@H](C)C[C@H](C)/C=C/C=C/C=C/1C` [Example 127]: the IC50 in experiment [1] was greater than 1000 nM; in experiment [2], 3.16 to 31.6 nM; in experiment [3], less than 1 nM.
With `CO[C@H]1C[C@@H]2CC[C@@H](C)[C@@](O)(O2)C(=O)C(=O)N2CCCC[C@H]2C(=O)O[C@H]([C@H](C)C[C@@H]2CC[C@@H](OC(=O)NCc3cnc(N4CCN(C(=O)CCOCCN5CCN(c6ncc(C(=O)NCCS(=O)(=O)c7ccc(C(=O)N8CCOc9ccc(-c%10ccc(N)nc%10)cc9C8)c(C)c7)cn6)CC5)CC4)nc3)[C@H](OC)C2)C[C@@H](O)[C@H](C)/C=C(\C)[C@@H](O)[C@@H](OC)C(=O)[C@H](C)C[C@H](C)/C=C/C=C/C=C/1C` [Example 125], the IC50 in experiment [1] is 3.16 to 31.6 nM; in experiment [2], less than 3.16 nM; in experiment [3], less than 1 nM.
As to `CO[C@H]1C[C@@H]2CC[C@@H](C)[C@@](O)(O2)C(=O)C(=O)N2CCCC[C@H]2C(=O)O[C@H]([C@H](C)C[C@@H]2CC[C@@H](OC(=O)NCCOCCOCCOCCOCCOCCOCCOCCOCCC(=O)NCCS(=O)(=O)c3ccc(C(=O)N4CCOc5ccc(-c6ccc(N)nc6)cc5C4)c(C)c3)[C@H](OC)C2)C[C@@H](O)[C@H](C)/C=C(\C)[C@@H](O)[C@@H](OC)C(=O)[C@H](C)C[C@H](C)/C=C/C=C/C=C/1C` [Example 41], the IC50 was greater than 1000 nM in experiment [1], less than 3.16 nM in experiment [2] and less than 1 nM in experiment [3].
Consider `CO[C@H]1C[C@@H]2CC[C@@H](C)[C@@](O)(O2)C(=O)C(=O)N2CCCC[C@H]2C(=O)O[C@H]([C@H](C)C[C@@H]2CC[C@@H](OC(=O)NCCOCCOCCOCCOCCOCCOCCOCCOCC(=O)N3CCc4cc(Cn5nc(-c6ccc7oc(N)nc7c6)c6c(N)ncnc65)ccc4C3)[C@H](OC)C2)C[C@@H](O)[C@H](C)/C=C(\C)[C@@H](O)[C@@H](OC)C(=O)[C@H](C)C[C@H](C)/C=C/C=C/C=C/1C` [Example 72], for which the “pIC50 for Inhibition of mTORC1 and mTORC2 Substrate Phosphorylation p-AKT1/2/3-(S473)” value in experiment [1] is reported as “+++ (≥8.5)”. Moreover, the “pIC50 for Inhibition of mTORC1 and mTORC2 Substrate Phosphorylation P-4E-BP1-(T37/46)” value in experiment [2] was “+++ (≥8.5)”. Moreover, the “pIC50 for Inhibition of mTORC1 and mTORC2 Substrate Phosphorylation p-P70S6K-(T389)” value in experiment [3] is “+++ (≥9)”.
As for `CO[C@H]1C[C@@H]2CC[C@@H](C)[C@@](O)(O2)C(=O)C(=O)N2CCCC[C@H]2C(=O)O[C@H]([C@H](C)C[C@@H]2CC[C@@H](OC(=O)NCc3cnc(N4CCN(C(=O)CCOCCN5CCN(C(=O)CCC(=O)N6CCc7cc(Cn8nc(-c9ccc%10oc(N)nc%10c9)c9c(N)ncnc98)ccc7C6)CC5)CC4)nc3)[C@H](OC)C2)C[C@@H](O)[C@H](C)/C=C(\C)[C@@H](O)[C@@H](OC)C(=O)[C@H](C)C[C@H](C)/C=C/C=C/C=C/1C` [Example 132], the results for the IC50 in experiment [1], in experiment [2] and in experiment [3] were 3.16 to 31.6 nM, less than 3.16 nM and less than 1 nM, respectively.
Taken in the same sequence, the figures for `CO[C@H]1C[C@@H]2CC[C@@H](C)[C@@](O)(O2)C(=O)C(=O)N2CCCC[C@H]2C(=O)O[C@H]([C@H](C)C[C@@H]2CC[C@@H](OC(=O)NCc3cnc(N4CCN(C(=O)CCOCCN5CCN(c6ncc(C(=O)N7CCc8cc(Cn9nc(-c%10ccc%11oc(N)nc%11c%10)c%10c(N)ncnc%109)ccc8C7)cn6)CC5)[C@@H](C(=O)O)C4)nc3)[C@H](OC)C2)C[C@@H](OC)[C@H](C)/C=C(\C)[C@@H](O)[C@@H](OC)C(=O)[C@H](C)C[C@H](C)/C=C/C=C/C=C/1C` [Example 134] were greater than 1000 nM, less than 3.16 nM and less than 1 nM.
